Here are results for twelve compounds from ChEMBL document CHEMBL1144675, “Stereospecific synthesis and bio-activity of novel beta(3)-adrenoceptor agonists and inverse agonists” (Bioorg Med Chem, 2008).

Assay [1] concerns the target T1, Beta-3 adrenergic receptor (Homo sapiens, UniProt P13945). Briefly: Agonist activity at human adrenergic beta-3 receptor expressed in CHO cells assessed as cAMP levels by DELFIA method. In kind it is functional, cell-based. A general note: Changes in cAMP serve as a functional read-out for many G protein-coupled receptors.
Assay [2] has as its target T2, Peroxisome proliferator-activated receptor alpha (Mus musculus) (UniProt P23204).
T2 sequence (whole entry): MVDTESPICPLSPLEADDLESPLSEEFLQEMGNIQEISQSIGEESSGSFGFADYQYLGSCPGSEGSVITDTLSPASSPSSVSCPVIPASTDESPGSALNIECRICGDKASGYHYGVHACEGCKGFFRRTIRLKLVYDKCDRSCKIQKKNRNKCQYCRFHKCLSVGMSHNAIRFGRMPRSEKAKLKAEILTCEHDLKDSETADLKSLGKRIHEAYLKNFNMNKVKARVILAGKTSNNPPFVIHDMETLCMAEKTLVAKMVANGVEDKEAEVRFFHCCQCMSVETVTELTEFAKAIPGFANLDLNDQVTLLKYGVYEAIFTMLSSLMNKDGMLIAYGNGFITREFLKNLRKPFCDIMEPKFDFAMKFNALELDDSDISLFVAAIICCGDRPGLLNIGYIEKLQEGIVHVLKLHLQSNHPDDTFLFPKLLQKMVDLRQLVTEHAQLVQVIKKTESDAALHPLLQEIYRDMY
Briefly: Agonist activity at mouse PPARalpha receptor in monkey COS7 cells assessed as activation of CAT reporter gene at 50 uM by transactivation assay relative to Wy,14-643. The settings on record: COS-7. In kind it is functional, cell-based. A general note: In a reporter assay the amount or activity of a reporter protein is the signal.

In assay [3] the target is Beta-2 adrenergic receptor (Homo sapiens) (UniProt P07550). Briefly: Displacement of [3H]dihydroalprenolol from human adrenergic beta-2 receptor expressed in CHO cells at 10 uM. In kind it is cell-based. In general terms: Displacement assays read how much labelled ligand stays bound in the presence of the test substance.
Chain of Beta-2 adrenergic receptor (Homo sapiens) (P07550 whole entry, looked up): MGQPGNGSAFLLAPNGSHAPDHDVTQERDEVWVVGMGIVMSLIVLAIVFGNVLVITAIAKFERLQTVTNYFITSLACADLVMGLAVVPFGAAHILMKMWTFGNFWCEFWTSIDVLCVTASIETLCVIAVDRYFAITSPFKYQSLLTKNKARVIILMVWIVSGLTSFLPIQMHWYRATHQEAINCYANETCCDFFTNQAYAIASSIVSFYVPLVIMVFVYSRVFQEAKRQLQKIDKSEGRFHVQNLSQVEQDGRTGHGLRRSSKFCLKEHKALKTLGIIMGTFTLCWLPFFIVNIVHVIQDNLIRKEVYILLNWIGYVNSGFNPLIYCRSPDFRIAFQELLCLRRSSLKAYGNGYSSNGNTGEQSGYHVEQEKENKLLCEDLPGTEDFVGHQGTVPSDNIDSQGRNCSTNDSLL
Assay [4] deals with Beta-1 adrenergic receptor (Homo sapiens) (UniProt P08588). Kind of assay: Displacement of [3H]dihydroalprenolol from human adrenergic beta-1 receptor expressed in CHO cells at 10 uM. In kind it is cell-based.
Chain of Beta-1 adrenergic receptor (Homo sapiens) (P08588 whole entry, looked up): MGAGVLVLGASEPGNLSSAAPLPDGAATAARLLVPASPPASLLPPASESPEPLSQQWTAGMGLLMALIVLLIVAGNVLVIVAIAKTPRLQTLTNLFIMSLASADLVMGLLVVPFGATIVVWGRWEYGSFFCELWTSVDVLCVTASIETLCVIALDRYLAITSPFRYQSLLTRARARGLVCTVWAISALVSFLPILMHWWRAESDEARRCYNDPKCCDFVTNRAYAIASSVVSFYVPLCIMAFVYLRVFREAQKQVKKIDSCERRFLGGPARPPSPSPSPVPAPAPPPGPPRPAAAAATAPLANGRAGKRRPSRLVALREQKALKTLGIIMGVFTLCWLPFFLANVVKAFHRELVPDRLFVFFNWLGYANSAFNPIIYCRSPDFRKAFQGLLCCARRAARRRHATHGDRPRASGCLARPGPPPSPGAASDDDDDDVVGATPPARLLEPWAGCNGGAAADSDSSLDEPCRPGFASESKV
The target in assay [5] is T2, Peroxisome proliferator-activated receptor alpha (Mus musculus). Kind of assay: Agonist activity at mouse PPARalpha receptor in monkey COS7 cells assessed as activation of CAT reporter gene at 300 uM by transactivation assay relative to Wy,14-643. The format is functional, cell-based. The settings on record: COS-7.
Assay [6] shares this target. Kind of assay: Agonist activity at mouse PPARalpha receptor in monkey COS7 cells assessed as activation of CAT reporter gene at 150 uM by transactivation assay relative to Wy,14-643. The settings on record: COS-7. In kind it is functional, cell-based.
Assay [7] has as its target Beta-3 adrenergic receptor (Rattus norvegicus) (UniProt P26255). Briefly: Antagonist activity at adrenergic beta-3 receptor in rat proximal colon assessed as colon motility. In kind it is functional, tissue-based.
The target of assay [8] is T2, Peroxisome proliferator-activated receptor alpha (Mus musculus). Briefly: Agonist activity at mouse PPARalpha receptor in monkey COS7 cells assessed as activation of CAT reporter gene at 2 uM by transactivation assay relative to Wy,14-643. In kind it is functional, cell-based. The settings on record: COS-7.
Assay [9] deals with T1, Beta-3 adrenergic receptor.
Description: Agonist activity at human adrenergic beta3 receptor expressed in CHO cells assessed as [3H]cAMP levels by radiolabeled ligand based assay

The source made the active and inactive calls. The rule behind the calls is not given here.

T1 sequence (P13945 whole entry): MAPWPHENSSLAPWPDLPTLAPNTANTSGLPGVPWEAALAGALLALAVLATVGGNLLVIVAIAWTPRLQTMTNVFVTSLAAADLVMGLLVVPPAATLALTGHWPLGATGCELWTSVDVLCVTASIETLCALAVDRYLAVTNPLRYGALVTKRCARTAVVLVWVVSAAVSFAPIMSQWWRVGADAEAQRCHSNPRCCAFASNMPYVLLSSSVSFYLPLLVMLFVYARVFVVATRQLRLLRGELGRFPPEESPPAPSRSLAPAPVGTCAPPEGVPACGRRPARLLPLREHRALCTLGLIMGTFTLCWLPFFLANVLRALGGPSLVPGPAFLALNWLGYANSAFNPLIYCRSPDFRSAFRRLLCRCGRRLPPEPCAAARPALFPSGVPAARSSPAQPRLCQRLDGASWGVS
Chain of Beta-3 adrenergic receptor (Rattus norvegicus) (P26255 whole entry): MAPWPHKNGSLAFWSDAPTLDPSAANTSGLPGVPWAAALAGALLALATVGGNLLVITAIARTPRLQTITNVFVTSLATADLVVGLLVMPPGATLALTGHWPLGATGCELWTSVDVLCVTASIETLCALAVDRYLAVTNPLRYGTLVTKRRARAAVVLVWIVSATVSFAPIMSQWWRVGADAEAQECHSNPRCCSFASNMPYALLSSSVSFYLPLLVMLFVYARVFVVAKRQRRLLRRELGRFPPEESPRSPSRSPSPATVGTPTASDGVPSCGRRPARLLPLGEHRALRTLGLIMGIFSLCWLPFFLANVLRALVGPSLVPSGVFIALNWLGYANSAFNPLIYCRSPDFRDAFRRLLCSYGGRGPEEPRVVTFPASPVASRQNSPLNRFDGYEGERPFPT

For `CC(Oc1ccc(CCNCC(O)c2ccccc2)cc1)C(=O)O` (racemic), in assay [1], the half-maximal effective concentration (EC50) (in general, the concentration at which the effect is half-maximal) came out at 0.0038 µM. Moreover, the Activity in [2] was determined as 1.5%; in assay [5], 1.8%; in [6] it was 1.9%. Besides, the inhibition – broadly, the change of the read-out against control, counted positive when it falls – in assay [3] was determined as 24%; in [4] it was 37%.

In the case of `C[C@@H](Oc1ccc(CCNC[C@@H](O)c2ccccc2)cc1)C(=O)O` (single isomer, unassigned), the concentration for a half-maximal effect (EC50) in assay [1] was found to be 0.136 µM. In addition, the Activity in assay [2] is 1.3%; in assay [5] it was 3.6%; in assay [6], 2%. In assay [7], the outcome was Active. For the same compound, the inhibition in assay [3] turned out to be 1%; in assay [4] it was 10%.

`C[C@H](Oc1ccc(CCNC[C@@H](O)c2ccccc2)cc1)C(=O)O`: in assay [1], the EC50 stood at 0.181 µM. The Activity in assay [2] was found to be 1%; in assay [5], 1.8%; in assay [6], 1%. Besides, the result in assay [7] was Active. In addition, the inhibition amounted to 9% in assay [3] and 14% in assay [4].

In the case of `Cc1cccc(Nc2cc(Cl)nc(SCC(=O)O)n2)c1C`, the Activity in assay [8] turned out to be 100%.

`CNC[C@H](O)c1ccc(O)c(O)c1` [EPINEPHRINE]: the concentration for a half-maximal effect (EC50) came out at 0.031 µM in assay [1] and 0.049 µM in [9].

For the compound `C[C@H](Oc1ccc(CCNC[C@H](O)c2ccccc2)cc1)C(=O)O` (single isomer, unassigned), the 50% effective concentration (EC50) in assay [1] amounted to 0.0027 µM. In addition, the Activity came to 1.6% in assay [2], 1.5% in assay [5] and 1.8% in [6]. Besides, the inhibition in [3] came out at 1%; in assay [4], 28%.

Regarding `C[C@@H](Oc1ccc(CCNC[C@H](O)c2ccccc2)cc1)C(=O)O`, in assay [1], the concentration giving a half-maximal response (EC50) was determined as 0.235 µM. Besides, the figures for the Activity in assay [2], in [5] and in assay [6] were 1.1%, 2.6% and 1.5%, respectively. Besides, the values for the inhibition in [3] and in assay [4] were 2% and 6%, respectively.

Consider `CC(C)(Oc1ccc(Cl)cc1)C(=O)O`, for which, in assay [5], the Activity was found to be 86.5%.

Consider `CCOC(=O)C(C)(C)Oc1ccc(Cl)cc1`, for which the values for the Activity in assay [2], in [5] and in [6] were 12.6%, 89.9% and 11%, respectively.

In the case of `CC(C)(Oc1ccc(CCNC[C@H](O)c2ccccc2)cc1)C(=O)O`, the Activity in assay [2] amounted to 1.3%; in assay [5], 1.5%; in assay [6], 1.5%. Moreover, the values for the inhibition in [3] and in assay [4] were 1% and 8%, respectively.

As to `CC(C)(Oc1ccc(CCNC[C@@H](O)c2ccccc2)cc1)C(=O)O`, the Activity in [2] is 1.7%; in [5], 2.1%; in assay [6], 1.5%. The inhibition came to 5% in assay [3] and 13% in assay [4].

Regarding `CC(C)(Oc1ccc(CCNCC(O)c2ccccc2)cc1)C(=O)O` (racemic), in assay [1], the concentration for a half-maximal effect (EC50) was 0.0049 µM. Moreover, the Activity in [2] came to 2%; in [5] it was 1.8%; in assay [6], 1.7%. Further, the inhibition in assay [3] turned out to be 24%; in [4], 18%.
